# Assay results as given in patent publication US20120157452A1, “1H-PYRAZOLO[3,4-B] PYRIDINE COMPOUNDS FOR INHIBITING RAF KINASE” (GENENTECH, INC., priority 2009, published 2012).
# Target: T1, V600E full-length B-Raf (Homo sapiens, UniProt P15056, V600E)
# T1 construct: made in house; host or cells: Sf9 insect cells (baculovirus)
# Assay: B-Raf IC50 assay: incorporation of radio labeled phosphate from [γ-33P]ATP into FSBA-modified wild-type MEK
# Type: biochemical
# Text: Determining the activity of Raf in the sample is possible by a number of direct and indirect detection methods (US 2004/0082014). Activity of human recombinant B-Raf protein may be assessed in vitro by assay of the incorporation of radio labeled phosphate to recombinant MAP kinase (MEK), a known physiologic substrate of B-Raf, according to US 2004/0127496 and WO 03/022840. The activity/inhibition of V600E full-length B-Raf was estimated by measuring the incorporation of radio labeled phosphate from [γ-^33]ATP into FSBA-modified wild-type MEK (see Biological Example 1).
# Activity of human recombinant B-Raf protein may be assessed in vitro by assay of the incorporation of radio labeled phosphate to recombinant MAP kinase (MEK), a known physiologic substrate of B-Raf, according to US 2004/0127496 and WO 03/022840. Catalytically active human recombinant B-Raf protein is obtained by purification from sf9 insect cells infected with a human B-Raf recombinant baculovirus expression vector.
# The activity/inhibition of V600E full-length B-Raf was estimated by measuring the incorporation of radio labeled phosphate from [γ-^33]ATP into FSBA-modified wild-type MEK. The 30-μL, assay mixtures contained 25 mM Na Pipes, pH 7.2, 100 mM KCl, 10 mM MgCl2, 5 mM β-glycerophosphate, 100 μM Na Vanadate, 4 μM ATP, 500 nCi [γ-^33P]ATP, 1 μM FSBA-MEK and 20 nM V600E full-length B-Raf. Incubations were carried out at 22° C. in a Costar 3365 plate (Corning). Prior to the assay, the B-Raf and FSBA-MEK were preincubated together in assay buffer at 1.5× (20 μL of 30 nM and 1.5 μM, respectively) for 15 minutes, and the assay was initiated by the addition of 10 μL of […]. Following the 60-minute incubation, the assay mixtures were quenched by the addition of 100 μL of 25% TCA, the plate was mixed on a rotary shaker for 1 minute, and the product was captured on a Perkin-Elmer GF/B filter plate using a Tomtec Mach III Harvester. After sealing the bottom of the plate, 35 μL of Bio-Safe II (Research Products International) scintillation cocktail were added to each well and the plate was top-sealed and counted in a Topcount NXT (Packard).
# [1] = 4 μM ATP, 60-minute incubation, representative data of multiple tests
# T1 sequence (P15056 whole entry V600E): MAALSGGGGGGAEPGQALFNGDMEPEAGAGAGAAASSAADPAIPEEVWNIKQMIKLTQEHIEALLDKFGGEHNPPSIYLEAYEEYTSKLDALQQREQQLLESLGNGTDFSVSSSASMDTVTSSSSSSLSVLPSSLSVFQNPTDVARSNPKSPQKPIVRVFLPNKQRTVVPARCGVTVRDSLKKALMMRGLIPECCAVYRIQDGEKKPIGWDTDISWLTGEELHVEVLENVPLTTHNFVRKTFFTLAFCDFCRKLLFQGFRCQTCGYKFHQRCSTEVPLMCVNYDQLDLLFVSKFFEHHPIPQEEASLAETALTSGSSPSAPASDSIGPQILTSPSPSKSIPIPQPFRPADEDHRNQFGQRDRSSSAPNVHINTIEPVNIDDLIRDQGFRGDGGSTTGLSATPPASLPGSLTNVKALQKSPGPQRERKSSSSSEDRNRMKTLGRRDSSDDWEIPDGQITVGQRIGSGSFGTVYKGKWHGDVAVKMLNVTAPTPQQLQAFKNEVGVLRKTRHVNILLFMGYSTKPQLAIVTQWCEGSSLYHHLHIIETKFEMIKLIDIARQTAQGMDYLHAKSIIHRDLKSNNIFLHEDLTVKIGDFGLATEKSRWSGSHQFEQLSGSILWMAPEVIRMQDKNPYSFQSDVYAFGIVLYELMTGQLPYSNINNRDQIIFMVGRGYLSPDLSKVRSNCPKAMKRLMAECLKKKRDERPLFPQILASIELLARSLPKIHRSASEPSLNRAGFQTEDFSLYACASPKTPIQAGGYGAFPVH
IC50 [1] [µM],IC50 (bound stated) [µM],Compound
0.0349,< 0.1,"COc1n[nH]c2ncc(NC(=O)c3c(F)cc(F)c(OCc4ccccc4)c3F)cc12 [Example 32, 3-(benzyloxy)-2,4,6-trifluoro-N-(3-methoxy-1H-pyrazolo[3,4-b]pyridin-5-yl)benzamide]"
0.0172,< 0.1,"COc1n[nH]c2ncc(NC(=O)c3c(F)ccc(OCc4ccccc4)c3Cl)cc12 [Example 33, 3-(benzyloxy)-2-chloro-6-fluoro-N-(3-methoxy-1H-pyrazolo[3,4-b]pyridin-5-yl)benzamide]"
0.00483,< 0.1,"Cc1n[nH]c2ncc(NC(=O)c3c(Cl)ccc(OCc4ccccc4)c3F)cc12 [Example 34, 3-(benzyloxy)-6-chloro-2-fluoro-N-(3-methyl-1H-pyrazolo[3,4-b]pyridin-5-yl)benzamide]"
0.0021,< 0.1,"O=C(Nc1cnc2[nH]nc(C3CC3)c2c1)c1c(Cl)ccc(OCc2ccccc2)c1F [Example 35, 3-(benzyloxy)-6-chloro-N-(3-cyclopropyl-1H-pyrazolo[3,4-b]pyridin-5-yl)-2-fluorobenzamide]"
0.0375,< 0.1,"COc1n[nH]c2ncc(NC(=O)c3c(Cl)ccc(OCc4cccnc4)c3F)cc12 [Example 36, 6-chloro-2-fluoro-N-(3-methoxy-1H-pyrazolo[3,4-b]pyridin-5-yl)-3-(pyridin-3-ylmethoxy)benzamide]"
0.0038,< 0.1,"COc1n[nH]c2ncc(NC(=O)c3c(Cl)ccc(OCc4cscn4)c3F)cc12 [Example 37, 6-chloro-2-fluoro-N-(3-methoxy-1H-pyrazolo[3,4-b]pyridin-5-yl)-3-(thiazol-4-ylmethoxy)benzamide]"
0.0151,< 0.1,"COc1n[nH]c2ncc(NC(=O)c3c(Cl)ccc(OCc4cccc(C)n4)c3F)cc12 [Example 38, 6-chloro-2-fluoro-N-(3-methoxy-1H-pyrazolo[3,4-b]pyridin-5-yl)-3-((6-methylpyridin-2-yl)methoxy)benzamide]"
0.0642,< 0.1,"COc1n[nH]c2ncc(NC(=O)c3c(Cl)ccc(OCc4ccncc4)c3F)cc12 [Example 39, 6-chloro-2-fluoro-N-(3-methoxy-1H-pyrazolo[3,4-b]pyridin-5-yl)-3-(pyridin-4-ylmethoxy)benzamide]"
0.027,< 0.1,"COc1n[nH]c2ncc(NC(=O)c3c(Cl)ccc(OCc4ccncn4)c3F)cc12 [Example 40, 6-chloro-2-fluoro-N-(3-methoxy-1H-pyrazolo[3,4-b]pyridin-5-yl)-3-(pyrimidin-4-ylmethoxy)benzamide]"
0.152,< 0.5,"COc1n[nH]c2ncc(NC(=O)c3c(Cl)ccc(OCc4ncccn4)c3F)cc12 [Example 41, 6-chloro-2-fluoro-N-(3-methoxy-1H-pyrazolo[3,4-b]pyridin-5-yl)-3-(pyrimidin-2-ylmethoxy)benzamide]"
0.00263,< 0.1,"COc1n[nH]c2ncc(NC(=O)c3c(Cl)ccc(OCc4ccc(C(F)(F)F)nc4)c3F)cc12 [Example 43, 6-chloro-2-fluoro-N-(3-methoxy-1H-pyrazolo[3,4-b]pyridin-5-yl)-3-((6-(trifluoromethyl)pyridin-3-yl)methoxy)benzamide]"
0.00064,< 0.1,"COc1n[nH]c2ncc(NC(=O)c3c(Cl)ccc(OCc4ccc(C)cn4)c3F)cc12 [Example 44, 6-chloro-2-fluoro-N-(3-methoxy-1H-pyrazolo[3,4-b]pyridin-5-yl)-3-((5-methylpyridin-2-yl)methoxy)benzamide]"
0.00053,< 0.1,"COc1n[nH]c2ncc(NC(=O)c3c(Cl)ccc(OCc4ccc(Cl)cn4)c3F)cc12 [Example 45, 6-chloro-3-((5-chloropyridin-2-yl)methoxy)-2-fluoro-N-(3-methoxy-1H-pyrazolo[3,4-b]pyridin-5-yl)benzamide]"
0.00609,< 0.1,"COc1n[nH]c2ncc(NC(=O)c3c(Cl)ccc(OCc4ccc(C)nc4)c3F)cc12 [Example 46, 6-chloro-2-fluoro-N-(3-methoxy-1H-pyrazolo[3,4-b]pyridin-5-yl)-3-((6-methylpyridin-3-yl)methoxy)benzamide]"
0.00414,< 0.1,"COc1n[nH]c2ncc(NC(=O)c3c(Cl)ccc(OCc4ccc(I)cc4)c3F)cc12 [Example 47, 6-chloro-2-fluoro-3-(4-iodobenzyloxy)-N-(3-methoxy-1H-pyrazolo[3,4-b]pyridin-5-yl)benzamide]"
0.00168,< 0.1,"COc1n[nH]c2ncc(NC(=O)c3c(Cl)ccc(OCc4ccc(Br)cc4)c3F)cc12 [Example 48, 3-(4-bromobenzyloxy)-6-chloro-2-fluoro-N-(3-methoxy-1H-pyrazolo[3,4-b]pyridin-5-yl)benzamide]"
0.00391,< 0.1,COc1n[nH]c2ncc(NC(=O)c3c(Cl)ccc(OCc4ccc(S(C)(=O)=O)cc4)c3F)cc12 [Example 49]
0.00122,< 0.1,"COc1n[nH]c2ncc(NC(=O)c3c(Cl)ccc(OCc4cccc(Cl)c4)c3F)cc12 [Example 50, 6-chloro-3-(3-chlorobenzyloxy)-2-fluoro-N-(3-methoxy-1H-pyrazolo[3,4-b]pyridin-5-yl)benzamide]"
0.00201,< 0.1,"COc1n[nH]c2ncc(NC(=O)c3c(Cl)ccc(OCc4ccc(C#N)cc4)c3F)cc12 [Example 51, 6-chloro-3-(4-cyanobenzyloxy)-2-fluoro-N-(3-methoxy-1H-pyrazolo[3,4-b]pyridin-5-yl)benzamide]"
0.0704,< 0.1,"COc1n[nH]c2ncc(NC(=O)c3c(Cl)ccc(OCc4scnc4C)c3F)cc12 [Example 52, 6-chloro-2-fluoro-N-(3-methoxy-1H-pyrazolo[3,4-b]pyridin-5-yl)-3-((4-methylthiazol-5-yl)methoxy)benzamide]"
0.0132,< 0.1,"COc1n[nH]c2ncc(NC(=O)c3c(Cl)ccc(OCc4nccs4)c3F)cc12 [Example 53, 6-chloro-2-fluoro-N-(3-methoxy-1H-pyrazolo[3,4-b]pyridin-5-yl)-3-(thiazol-2-ylmethoxy)benzamide]"
0.00336,< 0.1,"COc1n[nH]c2ncc(NC(=O)c3c(Cl)ccc(OCc4ccco4)c3F)cc12 [Example 54, 6-chloro-2-fluoro-3-(furan-2-ylmethoxy)-N-(3-methoxy-1H-pyrazolo[3,4-b]pyridin-5-yl)benzamide]"
0.00147,< 0.1,"CCc1ccc(COc2ccc(Cl)c(C(=O)Nc3cnc4[nH]nc(OC)c4c3)c2F)cc1 [Example 55, 6-chloro-3-(4-ethylbenzyloxy)-2-fluoro-N-(3-methoxy-1H-pyrazolo[3,4-b]pyridin-5-yl)benzamide]"
0.00131,< 0.1,"COc1ccc(COc2ccc(Cl)c(C(=O)Nc3cnc4[nH]nc(OC)c4c3)c2F)cc1 [Example 56, 6-chloro-2-fluoro-N-(3-methoxy-1H-pyrazolo[3,4-b]pyridin-5-yl)-3-(4-methoxy-benzyloxy)benzamide]"
0.026,< 0.1,"COc1n[nH]c2ncc(NC(=O)c3c(Cl)ccc(OCc4cnccn4)c3F)cc12 [Example 57, 6-chloro-2-fluoro-N-(3-methoxy-1H-pyrazolo[3,4-b]pyridin-5-yl)-3-(pyrazin-2-ylmethoxy)benzamide]"
0.0371,< 0.1,"COc1n[nH]c2ncc(NC(=O)c3c(Cl)ccc(OCc4ccn(C)n4)c3F)cc12 [Example 58, 6-chloro-2-fluoro-N-(3-methoxy-1H-pyrazolo[3,4-b]pyridin-5-yl)-3-((1-methyl-1H-pyrazolo-3-yl)methoxy)benzamide]"
0.0106,< 0.1,"COc1n[nH]c2ncc(NC(=O)c3c(Cl)ccc(OCc4csc(C)n4)c3F)cc12 [Example 59, 6-chloro-2-fluoro-N-(3-methoxy-1H-pyrazolo[3,4-b]pyridin-5-yl)-3-((2-methylthiazol-4-yl)methoxy)benzamide]"
0.00128,< 0.1,"COc1n[nH]c2ncc(NC(=O)c3c(Cl)ccc(OCc4ccccc4Cl)c3F)cc12 [Example 60, 6-chloro-3-(2-chlorobenzyloxy)-2-fluoro-N-(3-methoxy-1H-pyrazolo[3,4-b]pyridin-5-yl)benzamide]"
0.0801,< 0.1,"COc1n[nH]c2ncc(NC(=O)c3c(Cl)ccc(OCc4cc(C)on4)c3F)cc12 [Example 61, 6-chloro-2-fluoro-N-(3-methoxy-1H-pyrazolo[3,4-b]pyridin-5-yl)-3-((5-methylisoxazol-3-yl)methoxy)benzamide]"
